Laboratory results published in US20040044006A1, “Methods of use of quinolone compounds against pneumococcal and haemophilus bacteria” (priority 1999, published 2004).
Converted amounts (≈) assume the structure as drawn. Read-outs that look alike come from different tables or passages of the source.

What was measured:
Assay type in all cases: cell-based, Streptococcus pneumoniae
[1] = system: pneumococci with ciprofloxacin MICs ≧8 μg/ml; test: Quinolone agar dilution MICs of 28 ciprofloxacin resistant pneumococcal strains, correlated with QRDR mutations
Method: Additionally these strains were tested for mutations in parC, gyrA, parE, and gyrB (Pan, et al. Antimicrob. Agents Chemother. 40:2321-2326, 1996) and for efflux mechanism (Brenwald, et ail., Antimicrob. Agents Chemother. 42:2032-2035, 1998).
Gemifloxacin susceptibility powder was obtained from SmithKline Beecham Laboratories, Harlow, UK. Agar dilution methodology was performed on 28 strains as described previously (M. R. Jacobs, Clin. Infect. Dis. 15: 119-127, […] and M. R. Jacobs, Rev. Med. Microbiol. 6:77-93, 1995), using Mueller-Hinton altar (BBL Microbiology Systems, Cockeysville, Md.) supplemented with 5% sheep blood. Standard quality control strains, including Streptococcus pneumoniae ATCC 49619, were included in each run of agar dilution MICs.

[2] = system: quinolone resistant pneumococci; test: Determination of efflux mechanism: MICs in the presence and absence of reserpine
Method: MICs were determined in the presence and absence of 10 μg/ml of reserpine (Sigma Chemicals, St. Louis, Mo.) as known in the art.
MICs were determined in the presence and absence of […] of reserpine (Sigma Chemicals, St. Louis, Mo., USA) as described previously (Brenwald, et al., Antimicrob. Agents Chemother. 42:2039-2035, 1998 and Davies, et al., Antimicrob. Agents Chemother. 43:1177-1182S, 1999).

[3] = system: penicillin susceptible and resistant pneumococcal strains (2 quinolone resistant); test: Time-kill testing of 12 pneumococcal strains
How it was run: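 Pneumococci at 5×10^5–5×10^6 cfu/ml were exposed to doubling antibiotic concentrations in cation-adjusted Mueller-Hinton broth + 5% lysed horse blood at 35 °C with shaking. Viable counts (detection limit 300 cfu/ml) were taken at 0, 3, 6, 12 and 24 h.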

CO/N=C1\CN(c2nc3c(cc2F)c(=O)c(C(=O)O)cn3C2CC2)CC1CN (racemic) [Gemifloxacin, (R,S)-7-(3-aminomethyl-4-methoxyiminopyrrolidin-1-yl)-1-cyclopropyl-6-fluoro-4-oxo-1,4-dihydro-1,8-naphthyridine-3-carboxylic acid]
MIC50 ([1]; Streptococcus pneumoniae): 0.25 µg/mL (≈ 0.642 µM)
MIC90 ([1]; Streptococcus pneumoniae): 0.5 µg/mL (≈ 1.28 µM)
MIC ([1]; Streptococcus pneumoniae, read-out: MICs in strains with three or four QRDR mutations, 20 strains, bound holds in all 20 (ciprofloxacin, levofloxacin, sparfloxacin), 19 (grepafloxacin), 10 (trovafloxacin), 18 (gemifloxacin)): < 0.5 µg/mL
MIC ([1]; Streptococcus pneumoniae, read-out: MICs in strains with three or four QRDR mutations, 21 strains, bound holds in all 21 (ciprofloxacin, levofloxacin, sparfloxacin), 20 (grepafloxacin), 11 (trovafloxacin), 19 (gemifloxacin)): ≤ 0.5 µg/mL
MIC ([1]; Streptococcus pneumoniae, strain 2, ParC S79-Y, ParE I460-V, GyrA None, GyrB None): 0.06 µg/mL (≈ 0.154 µM)
MIC ([1]; Streptococcus pneumoniae, strain 3, ParC D83-N, ParE I460-V, GyrA S81-F, GyrB None): 0.06 µg/mL (≈ 0.154 µM)
MIC ([1]; Streptococcus pneumoniae, strain 3, ParC D83-N, ParE I460-V, GyrA S83-F, GyrB None): 0.06 µg/mL (≈ 0.154 µM)
MIC ([1]; Streptococcus pneumoniae, strain 4, ParC S79-F, ParE I460-V, GyrA S81-F, GyrB None): 0.06 µg/mL (≈ 0.154 µM)
MIC ([1]; Streptococcus pneumoniae, strain 4, ParC S79-F, ParE I460-V, GyrA S83-F, GyrB None): 0.06 µg/mL (≈ 0.154 µM)
MIC ([1]; Streptococcus pneumoniae, strain 5, ParC R95-C, ParE D435-N, GyrA S81-F, GyrB None): 0.125 µg/mL (≈ 0.321 µM)
MIC ([1]; Streptococcus pneumoniae, strain 5, ParC R95-C, ParE D435-N, GyrA S83-F, GyrB None): 0.125 µg/mL (≈ 0.321 µM)
MIC ([1]; Streptococcus pneumoniae, strain 6, ParC S79-Y, ParE I460-V, GyrA E85-K, GyrB None): 0.125 µg/mL (≈ 0.321 µM)
MIC ([1]; Streptococcus pneumoniae, strain 6, ParC S79-Y, ParE I460-V, GyrA E87-K, GyrB None): 0.125 µg/mL (≈ 0.321 µM)
MIC ([1]; Streptococcus pneumoniae, strain 7, ParC None, ParE I460-V, GyrA None, GyrB None): 0.125 µg/mL (≈ 0.321 µM)
MIC ([1]; Streptococcus pneumoniae, strain 8, ParC S79-Y, ParE None, GyrA None, GyrB None): 0.125 µg/mL (≈ 0.321 µM)
MIC ([1]; Streptococcus pneumoniae, strain 9, ParC S79-Y, ParE None, GyrA None, GyrB None): 0.125 µg/mL (≈ 0.321 µM)
MIC ([1]; Streptococcus pneumoniae, strain 10, ParC S79-F, ParE I460-V, GyrA S81-C, GyrB None): 0.125 µg/mL (≈ 0.321 µM)
MIC ([1]; Streptococcus pneumoniae, strain 10, ParC S79-F, ParE I460-V, GyrA S83-C, GyrB None): 0.125 µg/mL (≈ 0.321 µM)
MIC ([1]; Streptococcus pneumoniae, strain 11, ParC S79-F, ParE I460-V, GyrA S81-F, GyrB None): 0.125 µg/mL (≈ 0.321 µM)
MIC ([1]; Streptococcus pneumoniae, strain 11, ParC S79-F, ParE I460-V, GyrA S83-F, GyrB None): 0.125 µg/mL (≈ 0.321 µM)
MIC ([1]; Streptococcus pneumoniae, strain 12, ParC S79-F, ParE I460-V, GyrA None, GyrB D435-N): 0.125 µg/mL (≈ 0.321 µM)
MIC ([1]; Streptococcus pneumoniae, strain 27, ParC S79-Y, ParE I460-V, GyrA S81-F, GyrB None): 1 µg/mL (≈ 2.57 µM)
MIC ([1]; Streptococcus pneumoniae, strain 27, ParC S79-Y, ParE I460-V, GyrA S83-F, GyrB None): 1 µg/mL (≈ 2.57 µM)
MIC ([1]; Streptococcus pneumoniae, strain 28, ParC D83-G N91-D, ParE None, GyrA S81-F S114-G, GyrB None): 1 µg/mL (≈ 2.57 µM)
MIC ([1]; Streptococcus pneumoniae, strain 28, ParC cell empty, ParE None, GyrA S83-F and S116-G, GyrB None): 1 µg/mL (≈ 2.57 µM)
MIC Range ([1]; agar dilution, 28 strains with ciprofloxacin MICs ≧8.0 μg/ml): 0.03 to 1.0 µg/mL
lower MICs in the presence of reserpine, fold range over affected strains ([2]; 28 quinolone resistant strains, 10 μg/ml reserpine): 2-4 ×
number of strains with lower MICs in the presence of reserpine ([2]; of 28 quinolone resistant strains, 10 μg/ml reserpine): 13 strains
Number of dilutions decrease after incubation with reserpine ([2]; strain 1): 2X^a
lower MIC in the presence of reserpine (efflux mechanism) ([2]; strain 1, 10 μg/ml reserpine): 2X^a
Number of dilutions decrease after incubation with reserpine ([2]; strain 5): 2X
lower MIC in the presence of reserpine (efflux mechanism) ([2]; strain 5, 10 μg/ml reserpine): 2X
Number of dilutions decrease after incubation with reserpine ([2]; strain 7): 2X
lower MIC in the presence of reserpine (efflux mechanism) ([2]; strain 7, 10 μg/ml reserpine): 2X
Number of dilutions decrease after incubation with reserpine ([2]; strain 8): 2X
lower MIC in the presence of reserpine (efflux mechanism) ([2]; strain 8, 10 μg/ml reserpine): 2X
Number of dilutions decrease after incubation with reserpine ([2]; strain 9): 4X
lower MIC in the presence of reserpine (efflux mechanism) ([2]; strain 9, 10 μg/ml reserpine): 4X
Number of dilutions decrease after incubation with reserpine ([2]; strain 11): 2X
lower MIC in the presence of reserpine (efflux mechanism) ([2]; strain 11, 10 μg/ml reserpine): 2X
Number of dilutions decrease after incubation with reserpine ([2]; strain 12): 2X
lower MIC in the presence of reserpine (efflux mechanism) ([2]; strain 12, 10 μg/ml reserpine): 2X
Number of dilutions decrease after incubation with reserpine ([2]; strain 16): 2X
lower MIC in the presence of reserpine (efflux mechanism) ([2]; strain 16, 10 μg/ml reserpine): 2X
Number of dilutions decrease after incubation with reserpine ([2]; strain 17): 2X
lower MIC in the presence of reserpine (efflux mechanism) ([2]; strain 17, 10 μg/ml reserpine): 2X
Number of dilutions decrease after incubation with reserpine ([2]; strain 23): 2X
lower MIC in the presence of reserpine (efflux mechanism) ([2]; strain 23, 10 μg/ml reserpine): 2X
Number of dilutions decrease after incubation with reserpine ([2]; strain 25): 2x X
lower MIC in the presence of reserpine (efflux mechanism) ([2]; strain 25, 10 μg/ml reserpine): 2x X
Number of dilutions decrease after incubation with reserpine ([2]; strain 26): 2x X
lower MIC in the presence of reserpine (efflux mechanism) ([2]; strain 26, 10 μg/ml reserpine): 2x X
Number of dilutions decrease after incubation with reserpine ([2]; strain 28): 4x X
lower MIC in the presence of reserpine (efflux mechanism) ([2]; strain 28, 10 μg/ml reserpine): 4x X
concentration at which bactericidal after 24 h ([3]; 12 penicillin susceptible and resistant pneumococcal strains, 24 h, bactericidal = ≧3 log10 cfu/ml (99.9%) reduction): 2 ×MIC
concentration at which uniformly bactericidal after 24 h ([3]; all 12 strains, 24 h): ≤ 0.5 µg/mL
bactericidal activity for the two quinolone resistant pneumococcal strains ([3]; two quinolone resistant strains): bactericidal at the microbroth MIC
